# Assay results reported in patent US20230131808A1, “PEGYLATED INTERFERON TAU AND COMPOSITIONS AND METHODS THEREOF” (priority 2020, published 2023).
# How the values were obtained:
# [1] = Cytotoxicity in Huh7 cells without virus infection (CellTiter Glo); conditions: human
# Huh7 cells = test: as above
# [2] = test system: Human Coronavirus 229E (hCoV-229E); test: microbe, parasite or virus in culture; type: cell-based
# hCoV-OC43 = test: HCoV OC43 CPE assay in Huh7 cells; type: cell-based; conditions: Betacoronavirus 1, Huh-7
structure (smiles),measurement,setting,value
CCC(CC)COC(=O)[C@H](C)N[P@](=O)(OC[C@H]1O[C@@](C#N)(c2ccc3c(N)ncnn23)[C@H](O)[C@@H]1O)Oc1ccccc1 [Remdesivir],CC50 at 7 days,[1],17.2 µM
same,Average Viability (%),Huh7 cells; 0.046 μM,99.99%
same,Average Viability (%),Huh7 cells; 0.137 μM,101.58%
same,Average Viability (%),Huh7 cells; 0.412 μM,104.10%
same,Average Viability (%),Huh7 cells; 1.235 μM,102.28%
same,Average Viability (%),Huh7 cells; 3.704 μM,86.91%
same,Average Viability (%),Huh7 cells; 11.11 μM,56.84%
same,Average Viability (%),Huh7 cells; 33.33 μM,36.88%
same,Average Viability (%),Huh7 cells; 100.00 μM,21.77%
NC(=O)c1ncn([C@@H]2O[C@H](CO)[C@@H](O)[C@H]2O)n1 [Ribavirin],IC50,[2],30 µM
CCN(CC)CCCC(C)Nc1ccnc2cc(Cl)ccc12 (centres unmarked) [chloroquine phosphate],EC50,hCoV-OC43,3.12 µM
